Two compounds from patent US5488051A, “Substituted 5,6-dihydro-5-oxo-1,4-dithiino-(2,3-d)-pyridazine-2,3-dicarbonitriles, compositions containing them and their use as antimicrobials” (The Dow Chemical Company, priority 1994, dated 1996) can be followed below.

The subject of one test is Trichoderma viride (Tv). The experiment in a line: MIC for Trichoderma viride, malt yeast agar. To be noted: malt yeast agar; 30° C., 72 hours for fungi; read-out: Minimum Inhibitory Concentration (MIC), Tv. The class given is cell-based, Trichoderma viride ATCC 8678. The method in brief: (§1)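 Agar dilution on malt yeast agar with compound (from 1% acetone/water solution) at final 0, 1.0, 2.5, 5, 10, 25, 50, 100, 250, 500 ppm. Plates inoculated by replicator with saline suspensions (1:9 diluted) of 7-day cultures; incubated at 30 °C, read at 48 h for yeast and 72 h for fungi.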

The test system of a further test is Fusarium oxysporum (Fo). The experiment in a line: MIC for Fusarium oxysporum, malt yeast agar. The settings on record: malt yeast agar; 30° C., 72 hours for fungi; read-out: Minimum Inhibitory Concentration (MIC), Fo. The class given is cell-based, Fusarium oxysporum ATCC 48112. The method in brief:
as §1

For test [1], the system named is Penicillium chrysogenum (Pc). The experiment in a line: MIC for Penicillium chrysogenum, malt yeast agar. The class given is cell-based, Penicillium chrysogenum ATCC 9480. The settings on record: malt yeast agar; 30° C., 72 hours for fungi; read-out: Minimum Inhibitory Concentration (MIC), PC. The method in brief: as §1
A further test concerns Bacillus subtilis (Bs). The experiment in a line: MIC for Bacillus subtilis, nutrient agar. The settings on record: 30° C., 48 hours, read-out: Minimum Inhibitory Concentration (MIC), Bs. The test is classed as cell-based, Bacillus subtilis ATCC 8473. The method in brief: (§2)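 Growth inhibition scored visually after 48 h at 30° C on nutrient agar plates (pH 6.8 and pH 8.2) into which compound had been incorporated at 0–500 ppm final. Inocula of 10^8 CFU/mL were applied by replicator.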

Another test relates to Salmonella choleraesuis. The experiment in a line: MIC for Salmonella choleraesuis, nutrient agar. The test is classed as cell-based, Salmonella choleraesuis ATCC 10708. To be noted: Salmonella enterica, 30° C., 48 hours, read-out: Minimum Inhibitory Concentration (MIC), SC. The method in brief:
as §2

The test system of test [2] is Pseudomonas aeruginosa (Pa). The experiment in a line: MIC for Pseudomonas aeruginosa, nutrient agar. The test is classed as cell-based, Pseudomonas aeruginosa ATCC 10145. The settings on record: 48 hours, read-out: Minimum Inhibitory Concentration (MIC), Pa. The method in brief:
as §2

A further test deals with Aspergillus niger (An). The experiment in a line: MIC for Aspergillus niger, malt yeast agar. To be noted: malt yeast agar; 30° C., 72 hours for fungi; read-out: Minimum Inhibitory Concentration (MIC), An. The class given is cell-based, Aspergillus niger ATCC 16404. The method in brief:
as §1

A further test concerns Saccharomyces cerevisiae. The experiment in a line: MIC for Saccharomyces cerevisiae, malt yeast agar. The settings on record: malt yeast agar, 30° C., 48 hours for yeast, read-out: Minimum Inhibitory Concentration (MIC), Sc. The test is classed as cell-based, Saccharomyces cerevisiae ATCC 4105. The method in brief: as §1
The subject of a further test is Escherichia coli (Ec). The experiment in a line: MIC for Escherichia coli, nutrient agar. The class given is cell-based, Escherichia coli ATCC 11229. The settings on record: 30° C., 48 hours, read-out: Minimum Inhibitory Concentration (MIC), Ec. The method in brief: as §2
The subject of another test is Proteus vulgaris (Pv). The experiment in a line: MIC for Proteus vulgaris, nutrient agar. The test is classed as cell-based, Proteus vulgaris ATCC 881. The settings on record: 30° C., 48 hours, read-out: Minimum Inhibitory Concentration (MIC), Pv. The method in brief:
as §2

Test [3] has as its system Aureobasidium pullulan (Ap). The experiment in a line: MIC for Aureobasidium pullulan, malt yeast agar. The test is classed as cell-based, Aureobasidium pullulan ATCC 16622. To be noted: malt yeast agar; 30° C.; 48 hours for yeast and 72 hours for fungi; read-out: Minimum Inhibitory Concentration (MIC), Ap. The method in brief:
as §1

For test [4], the system named is Pseudomonas aeruginosa (PRD-10). The experiment in a line: MIC for Pseudomonas aeruginosa PRD-10, nutrient agar. The class given is cell-based, Pseudomonas aeruginosa ATCC 15442. The settings on record: 30° C., 48 hours, read-out: Minimum Inhibitory Concentration (MIC), PRD. The method in brief: as §2
The test system of a further test is Candida albicans (Ca). The experiment in a line: MIC for Candida albicans, malt yeast agar. The class given is cell-based, Candida albicans ATCC 10231. To be noted: malt yeast agar; 30° C., 48 hours for yeast; read-out: Minimum Inhibitory Concentration (MIC), Ca. The method in brief:
as §1

≈ marks a conversion by molar mass, not a printed value. Where two headings read alike, the source gives them in different places.

On to `Cc1ccc(-n2ncc3c(c2=O)SC(C#N)=C(C#N)S3)cc1` [B, 5,6-dihydro-6-(4-methylphenyl)-5-oxo-1,4-dithiino-(2,3-d)-pyridazine-2,3-dicarbonitrile], for which the MIC is 25 µg/mL (≈ 77.1 µM) in the test with Trichoderma viride (Tv); 25 µg/mL (≈ 77.1 µM) in the test on Fusarium oxysporum (Fo); 25 µg/mL (≈ 77.1 µM) in [1]; less than 10 µg/mL in the test with Bacillus subtilis (Bs) (pH 6.8, nutrient agar); 25 µg/mL (≈ 77.1 µM) with Bacillus subtilis (Bs) (pH 8.2, nutrient agar); more than 500 µg/mL in the test with Salmonella choleraesuis (pH 6.8, nutrient agar). For the same compound, the MIC in the test with Salmonella choleraesuis (pH 8.2, nutrient agar) is more than 500 µg/mL; in [2] (pH 6.8, 30° C.) it was more than 500 µg/mL; in test [2] (pH 8.2, 30° C.), more than 500 µg/mL; in the test on Aspergillus niger (An), 25 µg/mL (≈ 77.1 µM); with Saccharomyces cerevisiae, less than 10 µg/mL; in the test with Escherichia coli (Ec) (pH 6.8, nutrient agar), 50 µg/mL (≈ 154 µM). Also, the MIC in the test on Escherichia coli (Ec) (pH 8.2, nutrient agar) was more than 500 µg/mL; in the test on Proteus vulgaris (Pv) (pH 6.8, nutrient agar), 500 µg/mL (≈ 1540 µM); with Proteus vulgaris (Pv) (pH 8.2, nutrient agar), more than 500 µg/mL; in test [3], less than 10 µg/mL; in [4] (pH 6.8, nutrient agar), more than 500 µg/mL; in [4] (pH 8.2, nutrient agar) it was more than 500 µg/mL. Also, the MIC in the test with Candida albicans (Ca) is less than 10 µg/mL.
On to `N#CC1=C(C#N)Sc2c(cnn(-c3ccc(Br)cc3)c2=O)S1` [C, 5,6-dihydro-6-(4-bromophenyl)-5-oxo-1,4-dithiino-(2,3-d)-pyridazine-2,3-dicarbonitrile], for which the MIC with Trichoderma viride (Tv) was 25 µg/mL (≈ 64.2 µM); in the test with Fusarium oxysporum (Fo), 10 µg/mL (≈ 25.7 µM); in [1] it was 25 µg/mL (≈ 64.2 µM); with Bacillus subtilis (Bs) (pH 6.8, nutrient agar), less than 10 µg/mL; with Bacillus subtilis (Bs) (pH 8.2, nutrient agar) it was 100 µg/mL (≈ 257 µM); in the test with Salmonella choleraesuis (pH 6.8, nutrient agar), 100 µg/mL (≈ 257 µM). The MIC was more than 500 µg/mL in the test with Salmonella choleraesuis (pH 8.2, nutrient agar); more than 500 µg/mL in test [2] (pH 6.8, 30° C.); more than 500 µg/mL in [2] (pH 8.2, 30° C.); 10 µg/mL (≈ 25.7 µM) in the test on Aspergillus niger (An); 10 µg/mL (≈ 25.7 µM) in the test with Saccharomyces cerevisiae; 100 µg/mL (≈ 257 µM) in the test with Escherichia coli (Ec) (pH 6.8, nutrient agar). In addition, the MIC in the test with Escherichia coli (Ec) (pH 8.2, nutrient agar) is more than 500 µg/mL; in the test on Proteus vulgaris (Pv) (pH 6.8, nutrient agar), 250 µg/mL (≈ 642 µM); in the test on Proteus vulgaris (Pv) (pH 8.2, nutrient agar) it was more than 500 µg/mL; in test [3], 10 µg/mL (≈ 25.7 µM); in test [4] (pH 6.8, nutrient agar), more than 500 µg/mL; in test [4] (pH 8.2, nutrient agar), more than 500 µg/mL. The MIC in the test on Candida albicans (Ca) turned out to be 10 µg/mL (≈ 25.7 µM).
